The text below walks through data of US20240058268A1, “METHODS OF TREATING SKIN DISORDERS” (priority 2021, published 2024).

The subject of data set [1] is cell types in skin biopsies (macrophage subsets, B cells, melanocytes, venular cells). Nature of the data set: Cell type scoring (cell-type gene signature expression scores in biopsies). It is filed as in vivo, human. The text has this: Single-Cell Analysis and Cell Marker Definition: Single-cell RNAseq data from Hughes et al. was used to determine the major cell types present in skin biopsies and the associated cell markers. Acne and normal samples from GSE150672 were downloaded and analyzed using the Seurat package. Data were normalized, scaled, and log-transformed. The most variable genes were selected based on their expression and dispersion. To reduce dimensionality, principal component analysis (PCA) was applied. The first eight principal components were used to cluster the cells using the graph-based approach FindClusters function in Seurat, with a resolution parameter of 0.4. Graphical representation of cell clusters was achieved using UMAP. A combination of known markers and differentially expressed genes was used to characterize cell clusters. Major cell type markers retained for scoring analysis included: B cells: MS4A1, CD79A; Fibroblasts: DCN, COL6A2, APOD, CFD, IGFBP5, COL1A2, COL1A1, COL3A1; Keratinocytes: KRT5, KRT1, KRT14, KRT15, S100A2, KRT6A, HOPX, KRT10, DSP; Langerhans cells: CD207; Mast cells: CPA3, IL1RL1, CTSG, TPSAB1, GATA2; Melanocytes: MLANA, MITF, PMEL, DCT; Myeloid cells: CD68, CTSS; Schwann cells: SCN7A; T cells: CD3D, TRBC2, IL7R, PTPRC, CXCR4; Venular cells: SELE, CD93, TM4SF1, A2M, RCAN1; Vascular smooth muscle cells (VSMC): TAGLN, RGS5, MYH11, ACTA2, MYL9.
Macrophage Gene Signatures: Gene markers specific to each class of macrophage were derived from the literature. For M0, M1 and M2 macrophages, the markers described in Newman et al. (Robust enumeration of cell subsets from tissue expression profiles, Nat Methods, 12:453-7, 2015) were used. For SPP1 activated macrophages, the markers from Morse et al. (Proliferating SPP1/MERTK-expressing macrophages in idiopathic pulmonary fibrosis. Eur Respir J., 54:1802441) were used. Final markers were as listed. M0 macrophage: ACP5, BHLHE41, C5AR1, CCDC102B, CCL22, CCL7, COL8A2, CSF1, CXCL3, CXCL5, CYP27A1, DCSTAMP, GPC4, HK3, IGSF6, MARCO, MMP9, NCF2, PLA2G7, PPBP, QPCT, SLAMF8, SLC12A8, TNFSF14, VNN1. M1 macrophage: ACHE, APOBEC3A, APOL3, APOL6, ARRB1, CCL19, CCL5, CCR7, CD38, CD40, CHI3L1, CXCL10, CXCL11, CXCL13, CXCL9, CYP27B1, DHX58, HESX1, IDO1, IFI44L, IL2RA, KIAA0754, KYNU, LAG3, LAMP3, LILRA3, LILRB2, NOD2, PLA1A, PTGIR, RASSF4, RSAD2, SLAMFI, SLC2A6, SOCS1, TLR7, TNFAIP6, TNIP3, TRPM4. M2 macrophage: AIF1, ALOX15, CCL13, CCL14, CCL23, CD209, CD4, CFP, CLEC10A, CLEC4A, CRYBB1, FES, FRMD4A, FZD2, GSTT1, HRH1, HTR2B, MS4A6A, NME8, NPL, P2RY13, PDCD1LG2, RENBP, WNT5B. SPP1 macrophage: MERTK, CD14, SPP1, CD68, LYZ.
Cell Type Scoring: Each cell type gene signature was used to define a cell type average gene expression in each of our clinical study samples, calculated as the average of the log 2 expression values of these markers. Boxplots were used to visualize the distribution of cell type gene expression scores between clinical groups. Statistical significance was assessed using Wilcoxon rank sum test. Graphs were generated using the ggpubr data visualization library.

Data set [2] concerns acne papule biopsies, Diseases or Functions Annotation. Nature of the data set: Ingenuity Pathway Analysis, diseases or functions activation of the trifarotene signature. It is filed as in vivo, human. To be noted: trifarotene treated area (day 27) vs papule before treatment. As for the experimental part: Functional and network analysis were generated with the Ingenuity Pathway Analysis software (QIAGEN® Inc., qiagenbioinformatics.com/products/ingenuity-pathway-analysis), and with Open Targets (opentargets.org/). IPA was used to identify canonical pathways, diseases and functions, and gene networks related to differentially expressed genes in acne lesions and post-lesional skin after treatment with trifarotene or vehicle. In addition, gene set enrichment analysis was performed with the R package FGSEA (version 1.12.0) using the hallmark and reactome gene sets. A comparative analysis was performed to identify expression patterns: For this analysis, the following comparisons were made to develop characteristic expression patterns: (a) Papule before treatment vs non-involved skin was used to derive an acne signature; (b) Resolved papule zone after treated with vehicle vs papule before treatment was used to derive signature of spontaneously resolved papule; and (c) Resolved papule zone after treatment with trifarotene vs papule before treatment to determine trifarotene treatment signature. […]

In the case of `CC(C)(C)c1cc(-c2cc(-c3ccc(C(=O)O)cc3)ccc2OCCO)ccc1N1CCCC1` [Trifarotene, 3″-tert-Butyl-4′-(2-hydroxy-ethoxy)-4″-pyrrolidin-1-yl-[1,1′,3′,1″ ]terphenyl-4-carboxylic acid], in data set [1] (following trifarotene treatment), the venular cells entry is “trend toward a decrease”. In data set [1] (spontaneously resolved vs trifarotene treated biopsies), the “M0, M1 and M2 macrophages” value is listed as “not significantly different”. For the same compound, the increase in melanocytes entry in data set [1] (trifarotene treated vs spontaneously resolved acne lesions) is on record as “greater in the trifarotene treated samples”. For the same compound, the B cell frequencies result in data set [1] (trifarotene treatment vs. spontaneous resolution) is listed as “greater impact in reducing B cell frequencies”. The “frequencies of SPP1+ macrophages” value in data set [1] (trifarotene treatment vs. spontaneously resolved acne papules, P=0.040) is given as “significantly reduced”. The “Activation z.score Trifarotene signature: Flux of Ca2+” value in data set [2] is on record as −2.838.
